Laboratory results taken from patent US20250235543A1, “MODIFIED PROTEINS AND PROTEIN DEGRADERS” (Cullgen (Shanghai), Inc., priority 2021, published 2025).
Like-named read-outs stand apart in the source and are kept apart here.

How the values were obtained:
[1] = tested on: cyclin D1; experiment: Cyclin D1 percentage degradation in Calu-1 cells (immunoblotting); type: cell-based; details: 16 hours
In short: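 Cyclin D1 degradation was assessed by western blot. Clarified lysates, obtained by RIPA lysis with inhibitors and centrifugation at 13,000 rpm, were normalized by BCA protein assay and separated by SDS-PAGE. Bands were detected with Western ECL Substrate on a Bio-Rad ChemiDoc MP Imaging system and quantified in Image Lab software to derive percentage degradation.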

[2] = target: T1, CDK4 (Homo sapiens, UniProt P11802); experiment: CDK4 percentage degradation in Calu-1 cells (immunoblotting); type: cell-based; details: for inhibition at 0.2 µM: read-out: CDK4 Degradation (200 nM); for inhibition at 10 µM: read-out: CDK4 Degradation (10 μM)
T1 construct: endogenous in cells; host or cells: Calu-1
T1 sequence (P11802 2-303 limits assumed): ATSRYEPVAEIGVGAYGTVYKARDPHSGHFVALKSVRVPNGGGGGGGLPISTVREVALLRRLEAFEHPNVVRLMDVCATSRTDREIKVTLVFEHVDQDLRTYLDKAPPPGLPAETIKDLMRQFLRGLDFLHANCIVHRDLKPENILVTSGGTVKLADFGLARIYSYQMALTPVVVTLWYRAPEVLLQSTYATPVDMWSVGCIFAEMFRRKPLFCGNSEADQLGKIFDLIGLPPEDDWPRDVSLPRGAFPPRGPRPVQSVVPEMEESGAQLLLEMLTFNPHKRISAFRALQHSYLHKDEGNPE
T1 sequence (P24385 whole entry partner): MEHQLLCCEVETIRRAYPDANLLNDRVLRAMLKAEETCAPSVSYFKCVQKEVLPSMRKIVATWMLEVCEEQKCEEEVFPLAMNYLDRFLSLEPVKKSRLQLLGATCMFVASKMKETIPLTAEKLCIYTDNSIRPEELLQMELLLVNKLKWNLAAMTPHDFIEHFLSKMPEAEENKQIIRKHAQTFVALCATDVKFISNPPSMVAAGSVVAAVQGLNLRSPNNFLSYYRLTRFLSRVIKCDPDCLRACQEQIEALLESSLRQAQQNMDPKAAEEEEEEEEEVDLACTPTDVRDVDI
T1 sequence (Q16531 2-1140 limits assumed, further chain): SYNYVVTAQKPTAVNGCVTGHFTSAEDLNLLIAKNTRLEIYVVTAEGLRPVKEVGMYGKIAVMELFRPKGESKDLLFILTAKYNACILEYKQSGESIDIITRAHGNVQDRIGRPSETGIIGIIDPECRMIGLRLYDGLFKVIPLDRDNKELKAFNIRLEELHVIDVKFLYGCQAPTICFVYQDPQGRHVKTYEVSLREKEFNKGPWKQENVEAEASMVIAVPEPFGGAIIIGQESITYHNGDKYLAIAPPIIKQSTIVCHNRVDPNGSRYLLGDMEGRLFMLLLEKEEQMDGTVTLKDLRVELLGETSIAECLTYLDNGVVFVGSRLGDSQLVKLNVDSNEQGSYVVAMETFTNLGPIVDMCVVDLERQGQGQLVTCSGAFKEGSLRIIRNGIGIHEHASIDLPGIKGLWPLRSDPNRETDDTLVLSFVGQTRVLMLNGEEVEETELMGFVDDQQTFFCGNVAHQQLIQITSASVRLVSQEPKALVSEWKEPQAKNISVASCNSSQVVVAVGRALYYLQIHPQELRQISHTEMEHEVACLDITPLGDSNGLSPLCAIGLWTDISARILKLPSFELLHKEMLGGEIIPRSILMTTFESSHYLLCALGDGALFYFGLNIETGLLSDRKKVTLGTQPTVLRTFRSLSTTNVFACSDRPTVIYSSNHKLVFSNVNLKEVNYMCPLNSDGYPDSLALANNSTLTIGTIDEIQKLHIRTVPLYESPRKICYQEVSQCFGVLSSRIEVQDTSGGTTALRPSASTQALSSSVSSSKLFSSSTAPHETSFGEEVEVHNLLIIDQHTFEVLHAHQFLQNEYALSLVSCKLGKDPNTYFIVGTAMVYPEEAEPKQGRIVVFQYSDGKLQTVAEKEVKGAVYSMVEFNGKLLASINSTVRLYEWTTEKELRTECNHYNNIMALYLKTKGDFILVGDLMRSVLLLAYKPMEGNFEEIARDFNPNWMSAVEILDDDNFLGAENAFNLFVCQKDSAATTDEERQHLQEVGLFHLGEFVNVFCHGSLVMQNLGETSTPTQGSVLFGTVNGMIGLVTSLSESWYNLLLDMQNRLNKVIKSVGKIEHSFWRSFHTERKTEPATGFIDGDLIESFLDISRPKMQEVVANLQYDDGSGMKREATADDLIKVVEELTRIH
In short: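 CDK4 degradation was measured by immunoblotting. Cells were washed in cold PBS and lysed in RIPA buffer with inhibitors for 30 min at 4° C., then spun at 13,000 rpm to clear. After BCA protein determination, lysates were heated at 99° C. for 5 min in Laemmli buffer, resolved on SDS-PAGE, imaged on a ChemiDoc MP with ECL substrate, and band intensities quantified.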

Row | Structure (SMILES) | inhibition at 0.2 µM ([2]; Calu-1 cells, 200 nM, 16 hours) [%] | inhibition at 10 µM ([2]; Calu-1 cells, 16 hours) [%] | CyclinD1 Degradation (200 nM) [1] | inhibition at 0.2 µM ([2]; Calu-1, 16 h) [%] | CyclinD1 Degradation (10 μM) [1]
1 | CC(=O)c1c(C)c2cnc(Nc3ccc(N4CCN(CC(=O)NCCOCCOCCC(=O)Nc5ccccc5C(=O)Nc5ccc(C#N)cn5)CC4)cn3)nc2n(C2CCCC2)c1=O [CPD-083, 2-(3-(2-(2-(2-(4-(6-((6-Acetyl-8-cyclopentyl-5-methyl-7-oxo-7,8-dihydropyrido[2,3-d]pyrimidin-2-yl)amino)pyridin-3-yl)piperazin-1-yl)acetamido)ethoxy)ethoxy)propanamido)-N-(5-cyanopyridin-2-yl)benzamide] | 50 to 80 | – | A (protein percentage degradation >=80%) | – | –
2 | CC(=O)c1c(C)c2cnc(Nc3ccc(N4CCN(CC(=O)NCCOCCOCCC(=O)Nc5ccccc5C(=O)Nc5nc(Br)c(C)s5)CC4)cn3)nc2n(C2CCCC2)c1=O [CPD-071, 2-(3-(2-(2-(2-(4-(6-((6-Acetyl-8-cyclopentyl-5-methyl-7-oxo-7,8-dihydropyrido[2,3-d]pyrimidin-2-yl)amino)pyridin-3-yl)piperazin-1-yl)acetamido)ethoxy)ethoxy)propanamido)-N-(4-bromo-5-methylthiazol-2-yl)benzamide] | > 80 | – | A (protein percentage degradation >=80%) | – | –
3 | CC(=O)c1c(C)c2cnc(Nc3ccc(N4CCN(C(=O)CCOCCOCCOCCOCCC(=O)Nc5ccccc5C(=O)Nc5nc(C)c(C)s5)CC4)cn3)nc2n(C2CCCC2)c1=O [CPD-176, 16-(4-(6-((6-Acetyl-8-cyclopentyl-5-methyl-7-oxo-7,8-dihydropyrido[2,3-d]pyrimidin-2-yl)amino)pyridin-3-yl)piperazin-1-yl)-N-(2-((4,5-dimethylthiazol-2-yl)carbamoyl)phenyl)-16-oxo-4,7,10,13-tetraoxahexadecanamide] | – | – | A (protein percentage degradation >=80%) | > 80 | –
4 | Cc1nc(NC(=O)c2ccccc2NC(=O)CCCCNC(=O)CN2CCN(Cc3ccc(Nc4ncc(F)c(-c5cc(F)c6nc(C)n(C(C)C)c6c5)n4)nc3)CC2)sc1C [CPD-275, N-(4,5-Dimethylthiazol-2-yl)-2-(5-(2-(4-((6-((5-fluoro-4-(4-fluoro-1-isopropyl-2-methyl-1H-benzo[d]imidazol-6-yl)pyrimidin-2-yl)amino)pyridin-3-yl)methyl)piperazin-1-yl)acetamido)pentanamido)benzamide] | – | < 30 | – | – | D (protein percentage degradation < 30%)
5 | CC(=O)c1c(C)c2cnc(Nc3ccc(N4CCN(CC(=O)NCCOCCOCCC(=O)Nc5ccccc5C(=O)Nc5ccc(F)cn5)CC4)cn3)nc2n(C2CCCC2)c1=O [CPD-081, 2-(3-(2-(2-(2-(4-(6-((6-Acetyl-8-cyclopentyl-5-methyl-7-oxo-7,8-dihydropyrido[2,3-d]pyrimidin-2-yl)amino)pyridin-3-yl)piperazin-1-yl)acetamido)ethoxy)ethoxy)propanamido)-N-(5-fluoropyridin-2-yl)benzamide] | > 80 | – | A (protein percentage degradation >=80%) | – | –
6 | Cc1nc(NC(=O)c2ccccc2NC(=O)CCOCCOCCNC(=O)CN2CCN(Cc3ccc(Nc4ncc(F)c(-c5cc(F)c6nc(C)n(C(C)C)c6c5)n4)nc3)CC2)sc1C [CPD-281, N-(4,5-Dimethylthiazol-2-yl)-2-(3-(2-(2-(2-(4-((6-((5-fluoro-4-(4-fluoro-1-isopropyl-2-methyl-1H-benzo[d]imidazol-6-yl)pyrimidin-2-yl)amino)pyridin-3-yl)methyl)piperazin-1-yl)acetamido)ethoxy)ethoxy)propanamido)benzamide] | – | < 30 | – | – | D (protein percentage degradation < 30%)
7 | CC(=O)c1c(C)c2cnc(Nc3ccc(N4CCN(C(=O)CCNc5cccc(C(=O)Nc6nc(C)c(C)s6)c5C)CC4)cn3)nc2n(C2CCCC2)c1=O [CPD-112, 3-((3-(4-(6-((6-Acetyl-8-cyclopentyl-5-methyl-7-oxo-7,8-dihydropyrido[2,3-d]pyrimidin-2-yl)amino)pyridin-3-yl)piperazin-1-yl)-3-oxopropyl)amino)-N-(4,5-dimethylthiazol-2-yl)-2-methylbenzamide] | – | – | D (protein percentage degradation <30%) | < 30 | –
8 | CC(=O)c1c(C)c2cnc(Nc3ccc(N4CCN(CC(=O)NCCOCCOCCOCCOCCNC(=O)c5ccc(C(=O)Nc6ncc(C)s6)c(C)c5)CC4)cn3)nc2n(C2CCCC2)c1=O [CPD-012, N^4-(1-(4-(6-((6-Acetyl-8-cyclopentyl-5-methyl-7-oxo-7,8-dihydropyrido[2,3-d]pyrimidin-2-yl)amino)pyridin-3-yl)piperazin-1-yl)-2-oxo-6,9,12,15-tetraoxa-3-azaheptadecan-17-yl)-2-methyl-N^1-(5-methylthiazol-2-yl)terephthalamide] | < 30 | – | D (protein percentage degradation <30%) | – | –
9 | CC(=O)c1c(C)c2cnc(Nc3ccc(N4CCN(CC(=O)NCCOCCOCCCNc5ccccc5C(=O)Nc5nc(C)c(C)s5)CC4)cn3)nc2n(C2CCCC2)c1=O [CPD-267, 2-((3-(2-(2-(2-(4-(6-((6-Acetyl-8-cyclopentyl-5-methyl-7-oxo-7,8-dihydropyrido[2,3-d]pyrimidin-2-yl)amino)pyridin-3-yl)piperazin-1-yl)acetamido)ethoxy)ethoxy)propyl)amino)-N-(4,5-dimethylthiazol-2-yl)benzamide] | 50 to 80 | – | A (protein percentage degradation >=80%) | – | –
10 | CC(=O)c1c(C)c2cnc(Nc3ccc(N4CCN(CC(=O)NCCOCCOCCOCCOCCOCCNc5ccc(C(=O)Nc6cc(C)n(C)n6)c(C)c5)CC4)cn3)nc2n(C2CCCC2)c1=O [CPD-050, 4-((1-(4-(6-((6-Acetyl-8-cyclopentyl-5-methyl-7-oxo-7,8-dihydropyrido[2,3-d]pyrimidin-2-yl)amino)pyridin-3-yl)piperazin-1-yl)-2-oxo-6,9,12,15,18-pentaoxa-3-azaicosan-20-yl)amino)-N-(1,5-dimethyl-1H-pyrazol-3-yl)-2-methylbenzamide] | > 80 | – | A (protein percentage degradation >=80%) | – | –
11 | CC(=O)c1c(C)c2cnc(Nc3ccc(N4CCN(CC(=O)NCCOCCOCCC(=O)Nc5cc(F)ccc5C(=O)Nc5nc(C)c(C)s5)CC4)cn3)nc2n(C2CCCC2)c1=O [CPD-143, 2-(3-(2-(2-(2-(4-(6-((6-Acetyl-8-cyclopentyl-5-methyl-7-oxo-7,8-dihydropyrido[2,3-d]pyrimidin-2-yl)amino)pyridin-3-yl)piperazin-1-yl)acetamido)ethoxy)ethoxy)propanamido)-N-(4,5-dimethylthiazol-2-yl)-4-fluorobenzamide] | > 80 | – | A (protein percentage degradation >=80%) | – | –

The next lines start with results.

Row | inhibition at 0.2 µM ([2]; Calu-1 cells, 200 nM, 16 hours) [%] | inhibition at 10 µM ([2]; Calu-1 cells, 16 hours) [%] | Structure (SMILES) | CyclinD1 Degradation (200 nM) [1] | inhibition at 0.2 µM ([2]; Calu-1, 16 h) [%] | CyclinD1 Degradation (10 μM) [1]
12 | 50 to 80 | – | CNc1ccc(C(=O)Nc2ccc(N(C)C)nn2)c(NCCCCCNC(=O)CN2CCN(c3ccc(Nc4ncc5c(C)c(C(C)=O)c(=O)n(C6CCCC6)c5n4)nc3)CC2)c1 [CPD-377, 2-((5-(2-(4-(6-((6-Acetyl-8-cyclopentyl-5-methyl-7-oxo-7,8-dihydropyrido[2,3-d]pyrimidin-2-yl)amino)pyridin-3-yl)piperazin-1-yl)acetamido)pentyl)amino)-N-(6-(dimethylamino)pyridazin-3-yl)-4-(methylamino)benzamide] | A (protein percentage degradation >=80%) | – | –
13 | – | 50 to 80 | Cc1nc(NC(=O)c2ccccc2NC(=O)CCCCCCCCNC(=O)CN2CCN(c3ccc(Nc4ncc5cc6n(c5n4)C4(CCCCC4)CNC6=O)nc3)CC2)sc1C [CPD-321, N-(4,5-Dimethylthiazol-2-yl)-2-(9-(2-(4-(6-((6′-oxo-7′,8′-dihydro-6′H-spiro[cyclohexane-1,9′-pyrazino[1′,2′:1,5]pyrrolo[2,3-d]pyrimidin]-2′-yl)amino)pyridin-3-yl)piperazin-1-yl)acetamido)nonanamido)benzamide] | – | – | A (protein percentage degradation >= 80%)
14 | 50 to 80 | – | COc1ccc(NC(=O)c2ccccc2NC(=O)CCN2CCN(CCNC(=O)CN3CCN(c4ccc(Nc5ncc6c(C)c(C(C)=O)c(=O)n(C7CCCC7)c6n5)nc4)CC3)CC2)nn1 [CPD-345, 2-(3-(4-(2-(2-(4-(6-((6-Acetyl-8-cyclopentyl-5-methyl-7-oxo-7,8-dihydropyrido[2,3-d]pyrimidin-2-yl)amino)pyridin-3-yl)piperazin-1-yl)acetamido)ethyl)piperazin-1-yl)propanamido)-N-(6-methoxypyridazin-3-yl)benzamide] | A (protein percentage degradation >=80%) | – | –
15 | < 30 | – | CC(=O)c1c(C)c2cnc(Nc3ccc(N4CCN(CC(=O)NCCOCCOCCC(=O)Nc5ccccc5C(=O)Nc5ccc(OC(C)C)nn5)CC4)cn3)nc2n(C2CCCC2)c1=O [CPD-351, 2-(3-(2-(2-(2-(4-(6-((6-Acetyl-8-cyclopentyl-5-methyl-7-oxo-7,8-dihydropyrido[2,3-d]pyrimidin-2-yl)amino)pyridin-3-yl)piperazin-1-yl)acetamido)ethoxy)ethoxy)propanamido)-N-(6-isopropoxypyridazin-3-yl)benzamide] | D (protein percentage degradation <30%) | – | –
16 | < 30 | – | COc1ccc(NC(=O)c2ccccc2NC(=O)COCCN2CCC(NC(=O)CN3CCN(c4ccc(Nc5ncc6c(C)c(C(C)=O)c(=O)n(C7CCCC7)c6n5)nc4)CC3)CC2)nn1 [CPD-347, 2-(2-(2-(4-(2-(4-(6-((6-Acetyl-8-cyclopentyl-5-methyl-7-oxo-7,8-dihydropyrido[2,3-d]pyrimidin-2-yl)amino)pyridin-3-yl)piperazin-1-yl)acetamido)piperidin-1-yl)ethoxy)acetamido)-N-(6-methoxypyridazin-3-yl)benzamide] | D (protein percentage degradation <30%) | – | –
